This note sets out measurements from ChEMBL document CHEMBL6120940, “Discovery of N-Aryl-N'-[4-(aryloxy)cyclohexyl]squaramide-Based Inhibitors of LXR/SREBP-1c Signaling Pathway Ameliorating Steatotic Liver Disease: Navigating the Role of SIRT6 Activation” (J Med Chem, 2024).

Calls of active or inactive are those of the source. The rule behind the calls is not given here.

Data set [1] can be described thus: Tmax in 16 hrs fasted ICR mouse at 20 mg/kg, po measured upto 8 hrs by LC-MS/MS analysis. The format is ADME, organism-based. As to conditions: in vivo.
Data set [2] concerns HepG2. Nature of the data set: Downregulation of SREBP-1c expression level in nucleus of human HepG2 cells at 10 uM pretreated with compound for 30 mins followed by GW3965 addition and measured after 12 hrs by immunoblot analysis. Format: functional, cell-based. As to conditions: time 12.5 hrs. On the technique in general: In western blotting, separated proteins are transferred to a membrane and probed.

For data set [3], the target named is T1, CYP1A2 (Homo sapiens, UniProt P05177).
T1 sequence (P05177 whole entry): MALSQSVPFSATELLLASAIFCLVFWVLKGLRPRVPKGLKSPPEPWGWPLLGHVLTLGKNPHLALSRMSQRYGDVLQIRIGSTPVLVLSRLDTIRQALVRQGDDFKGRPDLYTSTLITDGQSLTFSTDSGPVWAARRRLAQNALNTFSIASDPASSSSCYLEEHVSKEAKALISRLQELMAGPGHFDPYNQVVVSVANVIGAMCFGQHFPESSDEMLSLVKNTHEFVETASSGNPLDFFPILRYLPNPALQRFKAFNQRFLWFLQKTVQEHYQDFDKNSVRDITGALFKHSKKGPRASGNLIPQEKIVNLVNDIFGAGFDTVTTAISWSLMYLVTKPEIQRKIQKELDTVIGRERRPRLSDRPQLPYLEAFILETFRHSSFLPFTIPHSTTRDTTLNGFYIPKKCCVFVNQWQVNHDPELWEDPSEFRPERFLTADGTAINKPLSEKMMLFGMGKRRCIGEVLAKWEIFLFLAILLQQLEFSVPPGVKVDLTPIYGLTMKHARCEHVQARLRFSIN
Nature of the data set: Inhibition of CYP1A2 in human liver microsomes at 10 uM using phenacetin as substrate preincubated for 5 mins followed by NADPH generating system addition and measured after 15 mins relative to control. The format is ADME, Microsome. Conditions: probe phenacetin, time 20 min. (Microsomes from liver hold many membrane-bound enzymes, among them those of drug oxidation.)

Data set [4] has as its system Mus musculus. Nature of the data set: Anti-lipogenic activity against high fat died induced male C57BL/6J mouse obesity model assessed as effect on body weight at 15 mg/kg, po administered three times per week and measured for 5 weeks. The format is functional, organism-based.
The test system of data set [5] is HepG2. Nature of the data set: Downregulation of acetylated histone H3K9 level in human HepG2 cells preincubated for 30 mins followed by GW3965 addition and measured after 12 hrs. Format: functional, cell-based. As to conditions: dose 5-10 µM, time 12.5 hrs.
Data set [6] relates to Mus musculus. Nature of the data set: Anti-lipogenic activity against high fat died induced male C57BL/6J mouse obesity model assessed as downregulation of Fasn level at 15 mg/kg, po administered three times per week and measured after 5 weeks by RT-qPCT analysis. Format: functional, organism-based.
Data set [7] relates to Mus musculus. Nature of the data set: Anti-lipogenic activity against high fat died induced male C57BL/6J mouse obesity model assessed as reduction liver tissue size at 15 mg/kg, po administered three times per week and measured for 5 weeks. The format is functional, organism-based.
The nature of data set [8]: AUC infinity in 16 hrs fasted ICR mouse at 20 mg/kg, po measured upto 8 hrs by LC-MS/MS analysis. Conditions: in vivo. The format is ADME, organism-based.
The subject of data set [9] is HepG2. Nature of the data set: Downregulation of SREBP-1c expression level in human HepG2 cells pretreated with compound for 30 mins followed by T0901317 addition and measured after 12 hrs by RT-qPCR analysis. Conditions: dose 5-10 µM, time 12.5 hrs. The format is functional, cell-based. Background: Quantitative PCR measures a nucleic acid by following its amplification.

The nature of data set [10]: MRT infinity in 16 hrs fasted ICR mouse at 20 mg/kg, po measured upto 8 hrs by LC-MS/MS analysis. Format: ADME, organism-based. As to conditions: in vivo.
Data set [11] concerns HepG2. Nature of the data set: Downregulation of SREBP-1c expression level in nucleus of human HepG2 cells at 10 uM pretreated with compound for 30 mins followed by T0901317 addition and measured after 12 hrs by immunoblot analysis. The format is functional, cell-based. Conditions: time 12.5 hrs.
Data set [12] can be described thus: Terminal half life in 16 hrs fasted ICR mouse at 20 mg/kg, po measured upto 8 hrs by LC-MS/MS analysis. As to conditions: in vivo, read-out: beta t1/2 (converted). The format is ADME, organism-based.
The subject of data set [13] is HepG2. Nature of the data set: Downregulation of LXR level in human HepG2 cells transfected with SIRT6 SiRNA at 10 uM preincubated for 30 mins followed by T0901317 addition and measured after 12 hrs. Format: functional, cell-based. As to conditions: time 12.5 hrs.
Data set [14] in a line: Metabolic stability in mouse liver microsomes at 1 uM measured after 30 mins in presence of NADPH regeneration system by LC-MS/MS analysis. The format is ADME, Microsome. Conditions: read-out: Stability.
Data set [15] has as its system AML12. Nature of the data set: Downregulation of SREBP-1c expression level in mouse AML12 cells at 10 uM pretreated with compound for 30 mins followed by T0901317 addition and measured after 12 hrs by RT-qPCR analysis. Format: functional, cell-based. As to conditions: time 12.5 hrs.
Data set [16] has as its target CYP2C19 (Homo sapiens, UniProt P33261). Nature of the data set: Inhibition of CYP2C19 in human liver microsomes at 10 uM using S-mephenytoin as substrate preincubated for 5 mins followed by NADPH generating system addition and measured after 15 mins relative to control. Format: ADME, Microsome. Conditions: probe S-mephenytoin, time 20 min.
Data set [17] relates to Hepatocyte. Nature of the data set: Lipid lowering effect on palmitic acid induced lipid accumulation in mouse Hepatocyte at 5 uM incubated for 30 mins by Oil red O staining based analysis. The format is functional, cell-based.
The test system of data set [18] is Hepatocyte. Nature of the data set: Effect on Acox-2 gene expression in mouse hepatocyte. The format is functional, cell-based.

Chain of CYP2C19 (P33261 whole entry): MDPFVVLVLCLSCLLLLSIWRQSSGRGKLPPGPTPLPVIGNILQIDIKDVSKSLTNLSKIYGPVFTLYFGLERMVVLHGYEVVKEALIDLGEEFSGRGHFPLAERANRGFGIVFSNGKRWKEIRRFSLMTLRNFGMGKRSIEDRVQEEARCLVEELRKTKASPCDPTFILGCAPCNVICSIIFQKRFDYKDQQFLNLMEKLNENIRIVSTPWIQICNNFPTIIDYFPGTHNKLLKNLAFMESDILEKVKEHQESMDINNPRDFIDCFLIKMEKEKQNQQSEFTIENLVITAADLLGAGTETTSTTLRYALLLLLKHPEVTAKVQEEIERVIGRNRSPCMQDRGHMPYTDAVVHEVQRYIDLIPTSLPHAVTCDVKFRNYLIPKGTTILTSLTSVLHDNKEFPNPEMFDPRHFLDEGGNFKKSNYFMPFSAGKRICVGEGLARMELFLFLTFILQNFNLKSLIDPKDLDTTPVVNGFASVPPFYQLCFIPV

A word on the Tmax: it is the time from dosing to the highest level. One may read the inhibition as how much of the control response was suppressed. What is called AUC(0-inf) is total exposure, with the tail of the curve extrapolated. Lower therefore signals less exposure. As a reminder, the MRT inf is a mean duration of stay, worked out from the concentration-time curve. On to `COc1ccccc1Nc1c(N[C@H]2CC[C@H](Oc3ccc([N+](=O)[O-])cc3)CC2)c(=O)c1=O`, for which the Tmax in data set [1] came to 0.3 h. Moreover, the result in data set [2], in data set [6], in [7], in data set [11], in [15] and in data set [17] was Active. Further, the inhibition at 0.25 h, 10 µM was 98% in [3] and 41.1% in data set [16]. The outcome in [4], in data set [13] and in data set [18] was inactive. The Activity entry in [5] and in [9] was “Dose-dependent-effect” throughout. In data set [8], the AUC(0-inf) came to 2890 ng·h/mL. The MRT inf in data set [10] came to 1.6 h. In [12], the half-life is 1.4 h. Also, in [14], the remaining at 0.5 h, 1 µM was 46.9%.
